Reference: ChEMBL document CHEMBL4732126, “Design, synthesis, and biodistribution studies of new analogues of marine alkaloids: Potent in vitro and in vivo fungicidal agents against Candida spp” (Eur J Med Chem, 2021)
Converted amounts (≈) assume the structure as drawn. The source made the active and inactive calls. The calls are words filed in the database; no cut-off is given here.

Key:
[1] = system: Candida albicans; assay: Fungicidal activity against Candida albicans isolate 13 assessed as fungal killing incubated for 48 hrs followed by plating on SD agar plate; format: functional; conditions: for MFC: read-out: MFC99.9
[2] = system: Candida albicans; assay: Antifungal activity against Candida albicans isolate 6 assessed as reduction in fungal growth incubated for 48 hrs by broth microdilution method; format: functional
[3] = system: Candida albicans; assay: Antifungal activity against Candida albicans ATCC 10231 assessed as inhibition of yeast to hypha morphological transition at 125 ug/ml measured upto 72 hrs by microscopic analysis; format: functional, organism-based; conditions: dose 125.0 µg/ml, time hrs <=72
[4] = system: Candida albicans; assay: Fungicidal activity against Candida albicans isolate 12 assessed as fungal killing incubated for 48 hrs followed by plating on SD agar plate; format: functional; conditions: for MFC: read-out: MFC99.9
[5] = system: Candida albicans; assay: Fungicidal activity against Candida albicans isolate 6 assessed as fungal killing incubated for 48 hrs followed by plating on SD agar plate; format: functional; conditions: for MFC: read-out: MFC99.9
[6] = system: Candida albicans; assay: Antifungal activity against Candida albicans ATCC 18804 assessed as reduction in fungal growth incubated for 48 hrs by broth microdilution method; format: functional
[7] = system: Candida albicans; assay: Antifungal activity against Candida albicans isolate 4 assessed as reduction in fungal growth incubated for 48 hrs by broth microdilution method; format: functional
[8] = system: Candida albicans; assay: Fungicidal activity against Candida albicans ATCC 10231 assessed as fungal killing incubated for 48 hrs followed by plating on SD agar plate; format: functional; conditions: for MFC: read-out: MFC99.9
[9] = system: Nakaseomyces glabratus; assay: Antifungal activity against Candida glabrata ATCC 2001 assessed as reduction in fungal growth incubated for 48 hrs by broth microdilution method; format: functional
[10] = system: Candida albicans; assay: Antifungal activity against Candida albicans isolate 5 assessed as reduction in fungal growth incubated for 48 hrs by broth microdilution method; format: functional
[11] = system: Candida albicans; assay: Fungicidal activity against Candida albicans isolate 9 assessed as fungal killing incubated for 48 hrs followed by plating on SD agar plate; format: functional; conditions: for MFC: read-out: MFC99.9
[12] = system: Candida albicans; assay: Antifungal activity against Candida albicans isolate 1 assessed as reduction in fungal growth incubated for 48 hrs by broth microdilution method; format: functional
[13] = system: Candida tropicalis; assay: Antifungal activity against Candida tropicalis ATCC 28707 assessed as reduction in fungal growth incubated for 48 hrs by broth microdilution method; format: functional
[14] = system: Pichia kudriavzevii; assay: Fungicidal activity against Candida krusei ATCC 34135 assessed as fungal killing incubated for 48 hrs followed by plating on SD agar plate; format: functional; conditions: for MFC: read-out: MFC99.9
[15] = system: Candida albicans; assay: Fungicidal activity against Candida albicans isolate 7 assessed as fungal killing incubated for 48 hrs followed by plating on SD agar plate; format: functional; conditions: for MFC: read-out: MFC99.9
[16] = system: Nakaseomyces glabratus; assay: Fungicidal activity against Candida glabrata ATCC 2001 assessed as fungal killing incubated for 48 hrs followed by plating on SD agar plate; format: functional; conditions: for MFC: read-out: MFC99.9
[17] = system: Candida albicans; assay: Antifungal activity against Candida albicans ATCC 10231 assessed as reduction in fungal growth incubated for 48 hrs by broth microdilution method; format: functional
[18] = system: Candida albicans; assay: Antifungal activity against Candida albicans isolate 10 assessed as reduction in fungal growth incubated for 48 hrs by broth microdilution method; format: functional
[19] = system: Candida albicans; assay: Antifungal activity against Candida albicans isolate 11 assessed as reduction in fungal growth incubated for 48 hrs by broth microdilution method; format: functional
[20] = system: Candida albicans; assay: Fungicidal activity against Candida albicans isolate 4 assessed as fungal killing incubated for 48 hrs followed by plating on SD agar plate; format: functional; conditions: read-out: MFC99.9
[21] = system: Candida tropicalis; assay: Fungicidal activity against Candida tropicalis ATCC 28707 assessed as fungal killing incubated for 48 hrs followed by plating on SD agar plate; format: functional; conditions: for MFC: read-out: MFC99.9
[22] = system: Candida albicans; assay: Fungicidal activity against Candida albicans isolate 2 assessed as fungal killing incubated for 48 hrs followed by plating on SD agar plate; format: functional; conditions: read-out: MFC99.9
[23] = system: Candida albicans; assay: Antifungal activity against Candida albicans isolate 3 assessed as reduction in fungal growth incubated for 48 hrs by broth microdilution method; format: functional
[24] = system: Candida albicans; assay: Antifungal activity against Candida albicans isolate 12 assessed as reduction in fungal growth incubated for 48 hrs by broth microdilution method; format: functional
[25] = system: Candida albicans; assay: Antifungal activity against Candida albicans isolate 8 assessed as reduction in fungal growth incubated for 48 hrs by broth microdilution method; format: functional
[26] = system: Candida albicans; assay: Antifungal activity against Candida albicans isolate 9 assessed as reduction in fungal growth incubated for 48 hrs by broth microdilution method; format: functional
[27] = system: Candida albicans; assay: Fungicidal activity against Candida albicans isolate 10 assessed as fungal killing incubated for 48 hrs followed by plating on SD agar plate; format: functional; conditions: for MFC: read-out: MFC99.9
[28] = system: Candida albicans; assay: Fungicidal activity against Candida albicans isolate 8 assessed as fungal killing incubated for 48 hrs followed by plating on SD agar plate; format: functional
[29] = system: Pichia kudriavzevii; assay: Antifungal activity against Candida krusei ATCC 34135 assessed as reduction in fungal growth incubated for 48 hrs by broth microdilution method; format: functional
[30] = system: Candida albicans; assay: Fungicidal activity against Candida albicans ATCC 10231 assessed as reduction in fungal load at 125 ug/ml incubated for 48 hrs followed by inoculation on SD agar plate for 48 hrs by time-kill assay; format: functional, organism-based; conditions: dose 125.0 µg/ml, time 96.0 hrs
[31] = system: Candida albicans; assay: Antifungal activity against Candida albicans isolate 7 assessed as reduction in fungal growth incubated for 48 hrs by broth microdilution method; format: functional
[32] = system: Candida albicans; assay: Antifungal activity against Candida albicans isolate 13 assessed as reduction in fungal growth incubated for 48 hrs by broth microdilution method; format: functional
[33] = system: Candida albicans; assay: Fungicidal activity against Candida albicans ATCC 18804 assessed as fungal killing incubated for 48 hrs followed by plating on SD agar plate; format: functional; conditions: for MFC: read-out: MFC99.9
[34] = system: Candida albicans; assay: Antifungal activity against Candida albicans isolate 2 assessed as reduction in fungal growth incubated for 48 hrs by broth microdilution method; format: functional
[35] = system: Candida albicans; assay: Fungicidal activity against Candida albicans isolate 11 assessed as fungal killing incubated for 48 hrs followed by plating on SD agar plate; format: functional; conditions: for MFC: read-out: MFC99.9
[36] = system: Pichia kudriavzevii; assay: Antifungal activity against Candida krusei ATCC 34135 assessed as reduction in fungal growth incubated for 48 hrs in presence of ergosterol by broth microdilution method; format: functional
[37] = system: Candida albicans; assay: Antifungal activity against Candida albicans ATCC 10231 assessed as reduction in fungal growth incubated for 48 hrs in presence of ergosterol by broth microdilution method; format: functional
[38] = system: Nakaseomyces glabratus; assay: Antifungal activity against Candida glabrata ATCC 2001 assessed as reduction in fungal growth incubated for 48 hrs in presence of ergosterol by broth microdilution method; format: functional
[39] = system: Candida tropicalis; assay: Antifungal activity against Candida tropicalis ATCC 28707 assessed as reduction in fungal growth incubated for 48 hrs in presence of ergosterol by broth microdilution method; format: functional
[40] = system: Candida albicans; assay: Antibiofilm activity against Candida albicans ATCC 10231 assessed as reduction in mature biofilm at 125 ug/ml incubated for 48 hrs by crystal violet staining based spectrophotometric analysis relative to control; format: functional; conditions: dose 125.0 µg/ml

Row | Compound | MFC [1] | MIC [2] | MFC [4] | MFC [5] | MIC [6] | MFC [8] | MIC [9] | MFC [11] | MIC [13] | MFC [14] | MFC [15] | MIC [17] | MIC [18] | MIC [19] | MIC [24] | MIC [25] | MIC [26] | MIC [29] | MIC [31] | MIC [32] | further results
1 | CC(=O)N1CCN(c2ccc(OCC3COC(Cn4ccnc4)(c4ccc(Cl)cc4Cl)O3)cc2)CC1 (stereo unspecified) [KETOCONAZOLE] | 250 µg/mL (≈ 470 µM) | 0.97 µg/mL (≈ 1.83 µM) | 500 µg/mL (≈ 941 µM) | 3.9 µg/mL (≈ 7.34 µM) | 31.2 µg/mL (≈ 58.8 µM) | 125 µg/mL (≈ 235 µM) | 125 µg/mL (≈ 235 µM) | 250 µg/mL (≈ 470 µM) | 31.2 µg/mL (≈ 58.8 µM) | 7.8 µg/mL (≈ 14.7 µM) | 7.8 µg/mL (≈ 14.7 µM) | 31.2 µg/mL (≈ 58.8 µM) | 7.8 µg/mL (≈ 14.7 µM) | 31.2 µg/mL (≈ 58.8 µM) | 15.6 µg/mL (≈ 29.4 µM) | 3.9 µg/mL (≈ 7.34 µM) | 31.2 µg/mL (≈ 58.8 µM) | 7.8 µg/mL (≈ 14.7 µM) | 1.95 µg/mL (≈ 3.67 µM) | 15.6 µg/mL (≈ 29.4 µM) | Activity [3]: Active; MIC [7]: 31.2 µg/mL (≈ 58.8 µM); MIC [10]: > 500 µg/mL; MIC [12]: > 500 µg/mL; MFC [16]: > 500 µg/mL; MFC [20]: 125 µg/mL (≈ 235 µM); MFC [21]: 62.5 µg/mL (≈ 118 µM); MFC [22]: > 500 µg/mL; MIC [23]: > 500 µg/mL; MFC [27]: 62.5 µg/mL (≈ 118 µM); MFC ([28]; read-out: MFC99.9): 7.8 µg/mL (≈ 14.7 µM); Activity [30]: inactive; MFC [33]: 125 µg/mL (≈ 235 µM); MIC [34]: 62.3 µg/mL (≈ 117 µM); MFC [35]: 125 µg/mL (≈ 235 µM)
2 | NYSTATIN | – | 4 µg/mL | – | – | 4 µg/mL | – | 4 µg/mL | – | 2 µg/mL | – | – | 4 µg/mL | 4 µg/mL | 4 µg/mL | 2 µg/mL | 4 µg/mL | 4 µg/mL | 8 µg/mL | 4 µg/mL | 2 µg/mL | MFC99.9 [1]: 2 µg/mL; MIC [36]: 31.2 µg/mL; MIC [37]: 31.2 µg/mL; MFC99.9 [4]: 4 µg/mL; MFC99.9 [5]: 4 µg/mL; MFC99.9 [8]: 4 µg/mL; MFC99.9 [11]: 4 µg/mL; MIC [38]: 31.2 µg/mL; MFC99.9 [14]: 8 µg/mL; MFC99.9 [15]: 4 µg/mL; MFC99.9 [16]: 4 µg/mL; MFC99.9 [21]: 2 µg/mL; MIC [39]: 3.9 µg/mL; inhibition [40]: 25%; MFC99.9 [27]: 4 µg/mL; MFC99.9 [28]: 4 µg/mL; MFC99.9 [33]: 4 µg/mL; MFC99.9 [35]: 4 µg/mL
3 | COC(=O)CCNCCCCCCCCCCCCOCCCc1cccnc1 | 160 µg/mL (≈ 393 µM) | 250 µg/mL (≈ 615 µM) | > 500 µg/mL | > 500 µg/mL | 250 µg/mL (≈ 615 µM) | 250 µg/mL (≈ 615 µM) | 160 µg/mL (≈ 393 µM) | 250 µg/mL (≈ 615 µM) | 160 µg/mL (≈ 393 µM) | 250 µg/mL (≈ 615 µM) | 250 µg/mL (≈ 615 µM) | 250 µg/mL (≈ 615 µM) | 250 µg/mL (≈ 615 µM) | 250 µg/mL (≈ 615 µM) | 250 µg/mL (≈ 615 µM) | > 500 µg/mL | 250 µg/mL (≈ 615 µM) | 250 µg/mL (≈ 615 µM) | 250 µg/mL (≈ 615 µM) | 160 µg/mL (≈ 393 µM) | MFC [16]: 160 µg/mL (≈ 393 µM); MFC [21]: 160 µg/mL (≈ 393 µM); MFC [27]: 250 µg/mL (≈ 615 µM); MFC [33]: 250 µg/mL (≈ 615 µM); MFC [35]: 250 µg/mL (≈ 615 µM)
